According to patent US20150223465A1, “COMPOSITION CONTAINING 3-CYCLOPROPYL-1-ENYL-PROPANOIC ACID SALTS AND A CARRIER” (Yissum Research Development Company of the Hebrew …, priority 2012, published 2015):

Columns and labels:
carnation flowers = assay: Loading 14-18 h with CPAS, 0-72 h in tap water, then ethylene for 24 h; vase life assessment; format: in vivo, carnation (Dianthus caryophyllus); settings: for protection from ethylene-induced senescence: loading 14-18 h, 1.0 ppm ethylene 24 h
Method: Carnation flower stems were cut under tap water to the desired lengths (36 and 55 cm). Four flowers per treatment, in groups of two flowers each, were loaded for 14-18 hours in 20 mL of treatment solutions containing 0, 30, 60 and 120 mg L^−1 CPAS in either an aqueous solution containing sodium carbonate/sodium bicarbonate buffer (40 mM, pH=9.5) and 0.025% Tween 20 or an aqueous solution containing K-Phosphate Buffer (40 mM, pH=7.8) and 0.025% Tween 20. At the end of CPAS loading (14-18 hours), groups of treated flowers were transferred into tap water for 0, 24, 48 and 72 hours. The cut flowers were then exposed to 1.0 ppm ethylene for 24 hours. At the end of the ethylene treatment, the flowers were ventilated and left under controlled conditions for additional 11, 10, 9, 8 days, respectively, for vase life assessment. Pictures of were taken 13 days after beginning of the experiment. It is noted that the carnation flowers tested were highly sensitive to ethylene, and therefore exposure to ethylene at an amount of 1.0 ppm was effected.

cut carnation flowers [1] = assay: Delaying senescence of cut carnation flowers: loading 24 h in CPAS solution, then 2 ppm ethylene for 24 h, visual inspection/photographs; format: in vivo, carnation (Dianthus caryophyllus); parameters: key: The result “−” means no ethylene antagonizing effect by visual inspection.; The result “+” means low ethylene antagonizing effect by visual inspection.; The result “++” means medium ethylene antagonizing effect by visual inspection.; The result “+++” means high ethylene antagonizing effect by visual inspection.; The result “++++” means very high ethylene antagonizing effect by visual inspection; settings: CPAS sodium salt 20-120 ppm, 36-55 cm stems
Description: (§1) The ethylene antagonizing effect of composition described herein can be assessed by its effect of delaying senescence of cut plants, such as cut flowers. Some embodiments of the present invention are based on the use of the composition described herein to treat cut flowers for delaying senescence of the cut flowers.
(§2) Cut Flowers: Unless otherwise noted, carnation flowers grown in a greenhouse were harvested at the beginning of flower opening stage, early in the morning, and were immediately brought to the laboratory. The flowers were either processed immediately or stored in a cold room (4° C.) for 1 to 5 days as required.
Treatment Procedure: The flower stems were cut under tap water to the desired lengths (15 cm-55 cm). Four flowers for each treatment group (of two flowers per each groups) were loaded in a 20 mL aqueous treatment solution (or “loading solution”) for 24 hours. The treatment solution was placed in a 35 mL tube. The loading solutions of CPAS in buffers were prepared in distilled water, as described hereinafter. At the end of CPAS loading, the flowers were transferred to tap water for 1 to 4 days until the cut flowers open. The cut flowers were then exposed to 2 ppm ethylene for 24 hours. Control cut flowers were loaded in a control solution without CPAS in the same manner as the treated cut flowers, and were thereafter exposed to ethylene or air. […]

cut carnation flowers [2] = assay: as above; format: in vivo, carnation (Dianthus caryophyllus); parameters: key: The result “−” means no ethylene antagonizing effect by visual inspection.; The result “+++” means high ethylene antagonizing effect by visual inspection.; The result “++++” means very high ethylene antagonizing effect by visual inspection; settings: CPAS sodium salt 20-120 ppm, 36-55 cm stems
Description: as §1, §2
(§3) Treatment Procedure: The flower stems were cut under tap water to the desired lengths (15 cm-55 cm). Four flowers for each treatment group (of two flowers per each groups) were loaded in a 20 mL aqueous treatment solution (or “loading solution”) for 24 hours. The treatment solution was placed in a 35 mL tube. The loading solutions of CPAS in buffers were prepared in distilled water, as described hereinafter. At the end of CPAS loading, the flowers were transferred to tap water for 1 to 4 days until the cut flowers open. The cut flowers were then exposed to 2 ppm ethylene for 24 hours. Control cut flowers were loaded in a control solution without CPAS in the same manner as the treated cut flowers, and were thereafter exposed to ethylene or air. At the end of ethylene exposure, the flowers were ventilated and left in tap water under controlled conditions (a temperature of 22° C., a relative humidity of 80%, and continuous fluorescent light) for additional 5 days for senescence assessment.

cut carnation flowers [3] = assay: Water uptake of treated cut flowers; settings: 60 or 120 ppm CPAS in 20 mM NaHCO3 pH 8.2; 36 cm stems; 48 hours after termination of ethylene exposure (2 ppm, 24 h)
Method: Water Uptake: The uptake of water by cut flowers was measured after CPAS loading and after ethylene exposure (exposure to 2 ppm ethylene for 24 hours, unless otherwise indicated). The aqueous treatment solution was maintained at 20 mL by addition of tap water after each treatment.
Aqueous treatment solutions of CPAS were prepared and tested, each of which contained 0, 60 or 120 ppm of CPAS in 20 mM NaHCO3 (pH 8.2). Cut flowers (36 cm long stems) were treated according to the treatment procedure described above.

cut carnation flowers [4] = assay: Flower diameter of cut carnations after CPAS loading and ethylene exposure; format: in vivo, carnation (Dianthus caryophyllus)
Method: as §3
Flower Diameter: In some experiments, flower diameter was determined according to the method described in Goren et al., Plant Growth Regulation 65:327-334 (2011), to assess flower quality.

O=C([O-])CCC1=CC1.[Na+] [CPAS, 3-cyclopropyl-1-enyl-propanoic acid salt]
protection from ethylene-induced senescence (carnation flowers; CPAS 60 and 120 mg L^−1 in K-Phosphate buffer 40 mM pH 7.8, 0.025% Tween 20): almost no protection | protection from ethylene-induced senescence (carnation flowers; CPAS 60 and 120 mg L^−1 in sodium carbonate/sodium bicarbonate buffer 40 mM pH 9.5, 0.025% Tween 20): significantly protected | protection with ethylene treatment 2 and 3 days after pretreatment (carnation flowers; CPAS at the two higher concentrations in Na-Carbonate buffer): more protected as the incubation time increases | resistance to ethylene-induced flower senescence after pretreatment (carnation flowers; ethylene exposure 3 days after pretreatment with CPAS): resistant | Results (efficacy of CPAS, ethylene antagonizing effect by visual inspection) (cut carnation flowers [1]; EDTA 500-1000 ppm): + | Results (efficacy of CPAS, ethylene antagonizing effect by visual inspection) (cut carnation flowers [1]; KHCO3 20-80 mM pH 8.2): ++ | Results (efficacy of CPAS, ethylene antagonizing effect by visual inspection) (cut carnation flowers [2]; Glycine/NaOH buffer 20 mM pH 8.8): − | Results (efficacy of CPAS, ethylene antagonizing effect by visual inspection) (cut carnation flowers [2]; H3BO3/NaOH buffer 20 mM pH 9.2): − | Results (efficacy of CPAS, ethylene antagonizing effect by visual inspection) (cut carnation flowers [2]; HCl-TRIS buffer 20 mM pH 8.4): − | Results (efficacy of CPAS, ethylene antagonizing effect by visual inspection) (cut carnation flowers [2]; Isopropylamine 500-1000 ppm pH 11.0): − | Results (efficacy of CPAS, ethylene antagonizing effect by visual inspection) (cut carnation flowers [2]; K-Citrate/Citric Ac. buffer 20 mM pH 4.65): − | Results (efficacy of CPAS, ethylene antagonizing effect by visual inspection) (cut carnation flowers [2]; K-Citrate/Citric Ac. buffer 20 mM pH 5.0 with 2,3-butanedione (500 ppm)): − | Results (efficacy of CPAS, ethylene antagonizing effect by visual inspection) (cut carnation flowers [2]; K-Citrate/Citric Ac. buffer 20 mM pH 5.0 with EMK (5%)): − | Results (efficacy of CPAS, ethylene antagonizing effect by visual inspection) (cut carnation flowers [2]; K-Citrate/Citric Ac. buffer 20 mM pH 5.0 with PVP (0.5%)): − | Results (efficacy of CPAS, ethylene antagonizing effect by visual inspection) (cut carnation flowers [2]; Na2B4O7/NaOH buffer 20 mM pH 9.4): − | Results (efficacy of CPAS, ethylene antagonizing effect by visual inspection) (cut carnation flowers [2]; Na2CO3/NaHCO3 buffer 40 mM pH 9.2-9.4 with Chloramphenicol 150 μM): ++++ | Results (efficacy of CPAS, ethylene antagonizing effect by visual inspection) (cut carnation flowers [2]; Na2CO3/NaHCO3 buffer 20-80 mM pH 9.2-9.4): ++++ | Results (efficacy of CPAS, ethylene antagonizing effect by visual inspection) (cut carnation flowers [2]; Na-Phosphate buffer 20 mM pH 6.0 + NaHCO3 60-80 mM, pH 7.4): +++ | Results (efficacy of CPAS, ethylene antagonizing effect by visual inspection) (cut carnation flowers [2]; Na-Phosphate buffer 20 mM pH 7.6): − | Results (efficacy of CPAS, ethylene antagonizing effect by visual inspection) (cut carnation flowers [2]; Na-Phosphate/Citrate buffer 20 mM pH 6.0 + NaHCO3 60-80 mM, pH 7.2): +++ | Results (efficacy of CPAS, ethylene antagonizing effect by visual inspection) (cut carnation flowers [2]; NaHCO3 40 mM pH 8.2 with Chloramphenicol 50 μM): +++ | Results (efficacy of CPAS, ethylene antagonizing effect by visual inspection) (cut carnation flowers [2]; NaHCO3 20-80 mM pH 8.2): +++ | water uptake of flowers (cut carnation flowers [3]): increased water uptake | senescence of cut flowers as measured by flower diameter (cut carnation flowers [4]; 55 cm stems, 100, 120 or 140 ppm CPAS in Na-phosphate or Na-phosphate/citrate buffer containing NaHCO3): delayed senescence was generally observed | effect of NaHCO3 concentration (60 or 80 mM) on treatment results (cut carnation flowers [4]; 55 cm stems, CPAS in Na-phosphate buffer (20 mM) containing NaHCO3): did not significantly affect the treatment results | effect of NaHCO3 concentration (60 or 80 mM) on treatment results (cut carnation flowers [4]; 55 cm stems, CPAS in Na-phosphate/citrate buffer (20 mM) containing NaHCO3): 80 mM NaHCO3 yielding better treatment results than 60 mM NaHCO3 | senescence of cut flowers as measured by flower diameter (cut carnation flowers [4]; stem length 55 cm, 80 or 120 ppm CPAS in 40, 60 or 80 mM Na2CO3/NaHCO3 buffer): delayed senescence | senescence of cut flowers as measured by flower diameter (cut carnation flowers [4]; stem length 55 cm, 80 ppm CPAS in 80 mM NaHCO3): delayed senescence | ethylene antagonizing effect compared among NaHCO3 concentrations (cut carnation flowers [4]; stem length 55 cm, 120 ppm CPAS in 60 mM NaHCO3 versus 40 and 80 mM): highest ethylene antagonizing effect | senescence of cut flowers as measured by flower diameter (cut carnation flowers [4]; stem length 55 cm, 120 ppm CPAS in 40, 60 or 80 mM NaHCO3): delayed senescence
